Measured values reported in ChEMBL document CHEMBL3045660, “Regioselective synthesis of fraxinellone-based hydrazone derivatives as insecticidal agents” (2012).

Columns and labels:
Format in all cases: functional
Mythimna separata [1] = test: Insecticidal activity against pre-third-instar larvae of Mythimna separata (Oriental armyworm) in compound treated fresh corn leaves assessed as corrected mortality at 1 mg/ml measured after 35 days by leaf-dipping method; conditions: 840 h
Mythimna separata [2] = test: Insecticidal activity against pre-third-instar larvae of Mythimna separata (Oriental armyworm) in compound treated fresh corn leaves assessed as corrected mortality at 1 mg/ml measured after 20 days by leaf-dipping method; conditions: 480 h
Mythimna separata [3] = test: Insecticidal activity against pre-third-instar larvae of Mythimna separata (Oriental armyworm) in compound treated fresh corn leaves assessed as corrected mortality at 1 mg/ml measured after 10 days by leaf-dipping method; conditions: 240 h

Structure (SMILES): COc1ccc(C(=O)N/N=C/C2=C3C(=O)O[C@@H](c4ccoc4)[C@]3(C)CCC2)cc1
- mortality at 1000 µg/mL (Mythimna separata [1]): 50%
- mortality at 1000 µg/mL (Mythimna separata [2]): 44.4%
- mortality at 1000 µg/mL (Mythimna separata [3]): 37.9%

Structure (SMILES): C[C@@]12CCCC(/C=N/NC(=O)c3ccc([N+](=O)[O-])cc3[N+](=O)[O-])=C1C(=O)O[C@H]2c1ccoc1
- mortality at 1000 µg/mL (Mythimna separata [1]): 53.8%
- mortality at 1000 µg/mL (Mythimna separata [2]): 40.7%
- mortality at 1000 µg/mL (Mythimna separata [3]): 31%

Structure (SMILES): CC1=C2C(=O)O[C@@H](c3ccoc3)[C@]2(C)CC/C1=N\NC(=O)c1ccccc1
- mortality at 1000 µg/mL (Mythimna separata [1]): 76.9%
- mortality at 1000 µg/mL (Mythimna separata [2]): 63%
- mortality at 1000 µg/mL (Mythimna separata [3]): 58.6%

Structure (SMILES): CC1=C2C(=O)O[C@@H](c3ccoc3)[C@]2(C)CC/C1=N\NC(=O)c1ccc([N+](=O)[O-])cc1
- mortality at 1000 µg/mL (Mythimna separata [1]): 65.4%
- mortality at 1000 µg/mL (Mythimna separata [2]): 63%
- mortality at 1000 µg/mL (Mythimna separata [3]): 58.6%

Structure (SMILES): CC1=C2C(=O)O[C@@H](c3ccoc3)[C@]2(C)CC/C1=N\NC(=O)c1cccc(Cl)c1
- mortality at 1000 µg/mL (Mythimna separata [1]): 69.2%
- mortality at 1000 µg/mL (Mythimna separata [2]): 59.3%
- mortality at 1000 µg/mL (Mythimna separata [3]): 58.6%

Structure (SMILES): CC1=C2C(=O)O[C@@H](c3ccoc3)[C@]2(C)CC/C1=N\NC(=O)c1ccncc1
- mortality at 1000 µg/mL (Mythimna separata [1]): 50%
- mortality at 1000 µg/mL (Mythimna separata [2]): 33.3%
- mortality at 1000 µg/mL (Mythimna separata [3]): 24.1%

Structure (SMILES): CC1=C2C(=O)O[C@@H](c3ccoc3)[C@]2(C)CC/C1=N\NC(=O)c1cccs1
- mortality at 1000 µg/mL (Mythimna separata [1]): 38.5%
- mortality at 1000 µg/mL (Mythimna separata [2]): 29.6%
- mortality at 1000 µg/mL (Mythimna separata [3]): 20.7%

Structure (SMILES): CC1=C2C(=O)O[C@@H](c3ccoc3)[C@]2(C)CC/C1=N\NC(=O)CC#N
- mortality at 1000 µg/mL (Mythimna separata [1]): 61.5%
- mortality at 1000 µg/mL (Mythimna separata [2]): 33.3%
- mortality at 1000 µg/mL (Mythimna separata [3]): 34.5%

Structure (SMILES): CC1=C2C(=O)O[C@@H](c3ccoc3)[C@]2(C)CC/C1=N\Nc1ccccc1
- mortality at 1000 µg/mL (Mythimna separata [1]): 46.2%
- mortality at 1000 µg/mL (Mythimna separata [2]): 22.2%
- mortality at 1000 µg/mL (Mythimna separata [3]): 10.3%

Structure (SMILES): CC1=C2C(=O)O[C@@H](c3ccoc3)[C@]2(C)CC/C1=N\Nc1ccc([N+](=O)[O-])cc1
- mortality at 1000 µg/mL (Mythimna separata [1]): 53.8%
- mortality at 1000 µg/mL (Mythimna separata [2]): 40.7%
- mortality at 1000 µg/mL (Mythimna separata [3]): 34.5%

Structure (SMILES): CC1=C2C(=O)O[C@@H](c3ccoc3)[C@]2(C)CC/C1=N\Nc1ccccc1[N+](=O)[O-]
- mortality at 1000 µg/mL (Mythimna separata [1]): 46.2%
- mortality at 1000 µg/mL (Mythimna separata [2]): 33.3%
- mortality at 1000 µg/mL (Mythimna separata [3]): 24.1%

Structure (SMILES): CC1=C2C(=O)O[C@@H](c3ccoc3)[C@]2(C)CC/C1=N\Nc1c(F)c(F)cc(F)c1F
- mortality at 1000 µg/mL (Mythimna separata [1]): 50%
- mortality at 1000 µg/mL (Mythimna separata [2]): 40.7%
- mortality at 1000 µg/mL (Mythimna separata [3]): 27.6%

Structure (SMILES): C[C@@]12CCCC(/C=N/NC(=O)c3ccccc3)=C1C(=O)O[C@H]2c1ccoc1
- mortality at 1000 µg/mL (Mythimna separata [1]): 65.4%
- mortality at 1000 µg/mL (Mythimna separata [2]): 55.6%
- mortality at 1000 µg/mL (Mythimna separata [3]): 58.6%

Structure (SMILES): C[C@@]12CCCC(/C=N/NC(=O)c3ccc([N+](=O)[O-])cc3)=C1C(=O)O[C@H]2c1ccoc1
- mortality at 1000 µg/mL (Mythimna separata [1]): 61.5%
- mortality at 1000 µg/mL (Mythimna separata [2]): 48.1%
- mortality at 1000 µg/mL (Mythimna separata [3]): 37.9%

Structure (SMILES): C[C@@]12CCCC(/C=N/NC(=O)c3cccc(Cl)c3)=C1C(=O)O[C@H]2c1ccoc1
- mortality at 1000 µg/mL (Mythimna separata [1]): 53.8%
- mortality at 1000 µg/mL (Mythimna separata [2]): 40.7%
- mortality at 1000 µg/mL (Mythimna separata [3]): 44.8%

Structure (SMILES): C[C@@]12CCCC(/C=N/NC(=O)c3ccncc3)=C1C(=O)O[C@H]2c1ccoc1
- mortality at 1000 µg/mL (Mythimna separata [1]): 73.1%
- mortality at 1000 µg/mL (Mythimna separata [2]): 66.7%
- mortality at 1000 µg/mL (Mythimna separata [3]): 55.2%

Structure (SMILES): C[C@@]12CCCC(/C=N/NC(=O)c3cccs3)=C1C(=O)O[C@H]2c1ccoc1
- mortality at 1000 µg/mL (Mythimna separata [1]): 34.6%
- mortality at 1000 µg/mL (Mythimna separata [2]): 29.6%
- mortality at 1000 µg/mL (Mythimna separata [3]): 24.1%

Structure (SMILES): C[C@@]12CCCC(/C=N/NC(=O)CC#N)=C1C(=O)O[C@H]2c1ccoc1
- mortality at 1000 µg/mL (Mythimna separata [1]): 69.2%
- mortality at 1000 µg/mL (Mythimna separata [2]): 66.7%
- mortality at 1000 µg/mL (Mythimna separata [3]): 55.2%

Structure (SMILES): C[C@@]12CCCC(/C=N/Nc3ccccc3)=C1C(=O)O[C@H]2c1ccoc1
- mortality at 1000 µg/mL (Mythimna separata [1]): 53.8%
- mortality at 1000 µg/mL (Mythimna separata [2]): 44.4%
- mortality at 1000 µg/mL (Mythimna separata [3]): 27.6%

Structure (SMILES): C[C@@]12CCCC(/C=N/Nc3ccc([N+](=O)[O-])cc3)=C1C(=O)O[C@H]2c1ccoc1
- mortality at 1000 µg/mL (Mythimna separata [1]): 38.5%
- mortality at 1000 µg/mL (Mythimna separata [2]): 14.8%
- mortality at 1000 µg/mL (Mythimna separata [3]): 20.7%

Structure (SMILES): C[C@@]12CCCC(/C=N/Nc3ccccc3[N+](=O)[O-])=C1C(=O)O[C@H]2c1ccoc1
- mortality at 1000 µg/mL (Mythimna separata [1]): 50%
- mortality at 1000 µg/mL (Mythimna separata [2]): 37%
- mortality at 1000 µg/mL (Mythimna separata [3]): 13.8%

Structure (SMILES): C[C@@]12CCCC(/C=N/Nc3c(F)c(F)cc(F)c3F)=C1C(=O)O[C@H]2c1ccoc1
- mortality at 1000 µg/mL (Mythimna separata [1]): 61.5%
- mortality at 1000 µg/mL (Mythimna separata [2]): 40.7%
- mortality at 1000 µg/mL (Mythimna separata [3]): 37.9%

Structure (SMILES): Cc1cccc(C(=O)N/N=C/C2=C3C(=O)O[C@@H](c4ccoc4)[C@]3(C)CCC2)c1
- mortality at 1000 µg/mL (Mythimna separata [1]): 53.8%
- mortality at 1000 µg/mL (Mythimna separata [2]): 44.4%
- mortality at 1000 µg/mL (Mythimna separata [3]): 41.4%

Structure (SMILES): C[C@@]12CCCC(C=O)=C1C(=O)O[C@H]2c1ccoc1 [3-FORMYLFRAXINELLONE]
- mortality at 1000 µg/mL (Mythimna separata [1]): 34.6%
- mortality at 1000 µg/mL (Mythimna separata [2]): 25.9%
- mortality at 1000 µg/mL (Mythimna separata [3]): 17.2%

Structure (SMILES): CC1=C2C(=O)O[C@@H](c3ccoc3)[C@]2(C)CCC1 [FRAXINELLONE]
- mortality at 1000 µg/mL (Mythimna separata [1]): 53.8%
- mortality at 1000 µg/mL (Mythimna separata [2]): 40.7%
- mortality at 1000 µg/mL (Mythimna separata [3]): 41.4%

Structure (SMILES): CC1=C2C(=O)O[C@@H](c3ccoc3)[C@]2(C)CCC1=O [FRAXINELLONONE]
- mortality at 1000 µg/mL (Mythimna separata [1]): 57.7%
- mortality at 1000 µg/mL (Mythimna separata [2]): 48.1%
- mortality at 1000 µg/mL (Mythimna separata [3]): 48.3%

Structure (SMILES): CC(=O)O[C@@H]1C[C@H](O)[C@@]23CO[C@@H](O)[C@]1(C)[C@@H]2C[C@@H](O)[C@]1(C)[C@@H]3C(=O)[C@H](OC(C)=O)[C@@]2(C)[C@H](c3ccoc3)C[C@H]3O[C@]321 [TOOSENDANIN]
- mortality at 1000 µg/mL (Mythimna separata [1]): 53.8%
- mortality at 1000 µg/mL (Mythimna separata [2]): 33.3%
- mortality at 1000 µg/mL (Mythimna separata [3]): 24.1%
